Experiments:
Assay type in all cases: in vivo
rats [1] = assay: Visual placing response test
Source text: Visual response was verified by two behavioral tests that evaluated the ability of the rat to capture visual information even when stationary (the visual object response) or when moving (the visual placing response). The visual object response test was used to evaluate the ability of the rat to see an object approaching from the front or the side, inducing the animal to shift or turn its head or to retreat (modified from [Ossato et al., 2015]; [Marti et al., 2019]). For the frontal visual response, a white horizontal bar was moved frontally to the rat’s head; the maneuver was repeated three times. For the lateral visual response, a small dentist’s mirror was moved into the rat’s field of view in a horizontal arc until the stimulus was between the rat’s eyes. The procedure was conducted bilaterally and was repeated three times. The score assigned was a value of 1 if there was a reflection in the rat movement or 0 if not. The total value was calculated by adding the scores obtained in the frontal with that obtained in the lateral visual object response (overall score 9). Evaluation of the visual object response was measured at 0, 10, 30, 60, 120, and 180 min post-injection. The visual placing response test was performed using a tail suspension-modified apparatus able to bring the rat toward the floor at a constant speed of 10 cm/sec (modified from [Ossato et al., 2015]; [Marti et al., 2019]). The downward movement of the rat was videotaped. Frame-by-frame analysis allowed us to evaluate the beginning of the reaction of the rat while it was close to the floor. When the rat started the reaction, an electronic ruler evaluated the perpendicular distance in millimeters between the eyes of the rat to the floor. The naïve rats perceived the floor and prepared for contact at a distance of about 27 ± 4.5 mm. Evaluation of the visual placing response was measured at 0, 15, 35, 65, 125, and 190 min post-injection.

rats [2] = assay: Acoustic response test
Experimental: Acoustic response measures the reflex of the rat in reply to an acoustic stimulus produced behind the animal. Four acoustic stimuli of different intensities and frequencies were tested (see [Marti et al., 2019]). Each sound test was repeated three times, giving a value of 1 if there was a response and 0 if not present, for a total score of 3 for each sound. The acoustic total score was calculated by adding scores obtained in the four tests (overall score 12). Evaluation of the […] was measured at 0, 10, 30, 60, 120, and 180 min post-injection.

rats [3] = assay: Core and surface body temperature
Experimental: To better assess the effects of the ligands on thermoregulation, we measured both changes in the core (rectal) and surface (ventral fur) temperature. The core temperature was evaluated by a probe (1 mm diameter) that was gently inserted, after lubrication with liquid Vaseline, into the rectum of the rat (to about 2 cm) and left in position until the stabilization of the temperature (about 10 sec; [De Luca et al., 2015]; [Vigolo et al., 2015]). The probe was connected to a Cole Parmer digital thermometer, model 8402. The surface temperature was measured by a Microlife FR 1DZ1 digital infrared thermometer, placed 1 cm from the surface of the abdomen of the rat ([Vigolo et al., 2015]). Core and surface body temperatures were measured at 0, 15, 35, 65, 125, and 190 min.

rats [4] = assay: Bar test (catalepsy)
Experimental: In the bar test, the rat’s forelimbs were placed on a bar made of plastic (height 6 cm). The time spent on the bar was measured (immobility cut-off: 20 sec), and akinesia was calculated as the total time spent on the bar after three consecutive trials (total maximal time of catalepsy: 60 s; [De Luca et al., 2015]; [Canazza et al., 2016]). The bar test was performed at 0, 20, 40, 70, 140, and 195 min post-injection.

rats [5] = assay: Conditioned place preference paradigm
Source text: The CPP chambers consisted of two equally sized compartments interconnected by a guillotine door, adopting a classical conditioning procedure that has been successfully used to assess the rewarding properties of several drugs of abuse. The compartments are differentiated by both visual and tactile cues: the color of the walls in each compartment (white or black) and the texture of the floors (wooden flat or metal wired). The box was placed in a dimly illuminated room. Place conditioning morning sessions ran from 8:30 a.m. to noon, while afternoon sessions ran from 2:30 p.m. to 6 p.m.
According to the conditioned place preference paradigm, on day 0 (pre-test), rats freely explored the two compartments for 15 min, and the time spent in each compartment during the exploratory period was measured. Rats that spent 60–70% of the total time on one side were excluded from the experiment. We used an unbiased-like protocol and assigned the drug-paired compartment randomly. On days 1–3 (conditioning phase), male Sprague-Dawley rats (n = 24) were divided into three groups (n = 8 per group) and given injections of AKB48 (0.1 or 0.5 mg/kg) or vehicle twice daily (9:00 a.m. to 7:00 p.m.) and confined to one compartment for 30 min for 3 days. During these conditioning trials, the animals developed an association between the subjective state produced by the drug and the environmental cues present in the compartment in which they received the drug. On day 4 (test day), rats were allowed to explore the two compartments freely for 15 min, and the time spent in each compartment during the exploratory period was measured.
To evaluate if the aversive effect obtained with the higher dose of AKB48 (0.5 mg/kg) was mediated by activation of CB1 cannabinoid receptors, male Sprague-Dawley rats (n = 32) were divided into four groups (n = 8 per group). Group 1 received AKB48 vehicle in both compartments and served as a control. […] CB1 antagonist was injected 20 min before the agonist AKB48, which was given 10 min prior to the test.

[6] = AM251 1 mg/kg i.p. before AKB48 3 mg/kg
[7] = AM251 1 mg/kg i.p. before AKB48 3 mg/kg i.p.

| SMILES | persistence of the reduction of visual placing response (rats [1]; AKB48 3 mg/kg i.p.) | visual placing response (rats [1]; AKB48 0.1–3 mg/kg i.p., 190 min observation) | acoustic response (rats [2]; AKB48, only at the highest dose (3 mg/kg i.p.)) | persistence of the reduction of acoustic response (rats [2]; AKB48 highest dose (3 mg/kg i.p.)) | time at which the core temperature effect was evident (rats [3]; AKB48 3 mg/kg i.p.) | surface body temperature (rats [3]; AKB48 0.1–3 mg/kg i.p.) | core body temperature (rats [3]; AKB48, only at 3 mg/kg i.p.) | time spent on the bar (rats [4]; AKB48 0.1–3 mg/kg i.p.) | conditioned place preference (rats [5]; AKB48 0.1 mg/kg) | conditioned place preference (rats [5]; AKB48 0.5 mg/kg) | visual placing response, AM251 alone (rats [1]; AM251 1 mg/kg i.p. alone) | visual impairment (placing) induced by AKB48, after AM251 pre-treatment (rats [1]; [6]) | acoustic response, AM251 alone (rats [2]; AM251 1 mg/kg i.p. alone (data not shown)) | inhibition of acoustic response induced by AKB48, after AM251 pre-treatment (rats [2]; [7]) | response to AM251 alone in the body temperature section (rats [3]; AM251 1 mg/kg i.p. alone) | hypothermia induced by AKB48, after AM251 pre-treatment (rats [3]; [7]) | catalepsy, AM251 alone (rats [4]; AM251 1 mg/kg i.p. alone) | AKB48 effect on time spent on the bar, after AM251 pre-treatment (rats [4]; [6]) | aversive effect of AKB48 on place preference, with AM251 (rats [5]; AM251 1 mg/kg i.p. + AKB48 0.5 mg/kg) |
| --- | --- | --- | --- | --- | --- | --- | --- | --- | --- | --- | --- | --- | --- | --- | --- | --- | --- | --- | --- |
| CCCCCn1nc(C(=O)NC23CC4CC(CC(C4)C2)C3)c2ccccc21 [AKB48, N-(1-adamantyl)-1-pentyl-1H-indazole-3-carboxamide] | up to 190 min | reduced | reduced | up to 120 min | 65 min | did not affect | reduced | slightly increased | ineffective | significant aversive effect |  |  |  |  |  |  |  |  |  |
| Cc1c(C(=O)NN2CCCCC2)nn(-c2ccc(Cl)cc2Cl)c1-c1ccc(I)cc1 [AM251, 1-(2,4-dichlorophenyl)-5-(4-iodophenyl)-4-methyl-N-(piperidin-1-yl)-1H-pyrazole-3-carboxamide, reference compound] |  |  |  |  |  |  |  |  |  |  | did not alter | prevented | did not alter | prevented | did not alter | prevented | did not induce catalepsy | prevented | blocked |

From PMC6831561, “Pharmacological and Behavioral Effects of the Synthetic Cannabinoid AKB48 in Rats” (Frontiers in Neuroscience, 2019)
